Assay results reported in paper PMC3456924, “Single-dose pharmacokinetic and toxicity analysis of pyrrole–imidazole polyamides in mice” (Cancer Chemotherapy and Pharmacology, 2012).
“And” between values parts separate entries of the source, which are not always exact repeats. Equal entries are not always repeated. “Also recorded” adds a separate entry of the source. Where two headings read alike, the source gives them in different places.

Key:
[1] = Urinary and fecal excretion after a single IV injection; type: in vivo, BALB/C mice
Method: (§1) Pyrrole–imidazole polyamide pharmacokinetic studies were performed in 10- to 12-week-old female BALB/C mice (Charles River). Polyamides were solubilized in PBS (1) or PBS/DMSO (2) and administered via intravenous (IV) tail vein injection at concentrations of 7.5 and 5 mg/kg, respectively. For each experiment, groups of 3 animals were euthanized at 0.083, 0.25, 0.5, 1, 2, 4, 8, and 24 h after injection. Animals designated for the 4, 8, and 24 h time points were housed in metabolic cages for collection of urine and feces as described below. All animals used in the pharmacokinetic experiments were performed under an approved protocol at the City of Hope.
Urine and fecal samples were collected using metabolic cages (Ancare, Techniplast Metabolic Rack, 12 cages by Nalgene). Urine samples were collected at 3 time points over 24 h, and fecal samples were collected at 8 and 24 h time points. […]
Plasma pharmacokinetic parameters were derived from polyamide concentration profiles using both non-compartmental and compartmental methods. […] Additional plasma pharmacokinetic parameters determined from the compartmental analysis include the alpha and beta half-lives (t 1/2) and the apparent volume of distribution (V d). […] Urinary and fecal excretion data were expressed as the cumulative percentage of the administered dose.

[2] = Tissue distribution (liver, kidney, lung) after a single IV injection; type: in vivo, BALB/C mice; conditions: for Tmax / concentration at 24 h: female, BALB/C, mouse; for concentration at 24 h: experiment endpoint (24 h), read-out: concentration remaining in the liver at the experiment endpoint; for AUC (AUC0–24h) kidney / C max kidney / AUC (AUC0–24h) liver / C max liver / AUC (AUC0–24h) lung / C max lung: 7.5 mg/kg (1), 5 mg/kg (2); for concentration in the lung maintained over the entire time course: lowest level over 24 h
Method: as §1
Distribution of polyamides 1 and 2 was determined in the liver, kidneys, and lungs. The organs were harvested post-euthanasia and prepared via similar processes. A piece of the mouse organ was weighed and mixed with distilled water (3 μL/mg tissue). The tissue was then homogenized by pulsing three times on a TissueLyser for 2 min each at 30 Hz. Next, 30 μL of the tissue homogenate was mixed with 20 μL of 50 % MeOH and 50 % aqueous 1 % HOAc. The mixture was then vortex mixed with 0.12 mL 0.5 % HOAc in MeOH/ACN (2:8) and 20 μL of 6.0 μg/mL INS in MeOH/1 % aqueous HOAc (1:1) for 10 min and centrifuged at the highest setting for an additional 10 min. Samples treated with polyamide 1 were then diluted with 50 % MeOH/ACN (4:6) and 50 % aqueous 1 % HOAc. Samples treated with polyamide 2 were diluted with 50 % MeOH/ACN (4:6) and 50 % aqueous 3 % FA.
Plasma pharmacokinetic parameters were derived from polyamide concentration profiles using both non-compartmental and compartmental methods. Non-compartmental analysis was performed according to statistical moment theory and the rule of linear trapezoids, while compartmental analysis was performed in ADAPT II [24]. Pharmacokinetic parameters estimated from the non-compartmental analysis include the maximum concentration (C max), the terminal elimination half-life (t 1/2), the mean residence time (MRT), the area under the concentration curve (AUC0–24h), the AUC extrapolated to infinity (AUC0–∞), and the clearance (CL). Additional plasma pharmacokinetic parameters determined from the compartmental analysis include the alpha and beta half-lives (t 1/2) and the apparent volume of distribution (V d). Tissue pharmacokinetic parameters were determined non-compartmentally and included the C max and AUC0–24h. Urinary and fecal excretion data were expressed as the cumulative percentage of the administered dose.

pH stability analysis = type: physicochemical; conditions: buffers at 37 °C for 24 h; analytical HPLC
Method: The pH stability of Py-Im polyamides was analyzed as previously described. In summary, 15 μL of a 10 μM solution of polyamide 1 or 2 in DMSO was incubated with 85 μL of buffer with pH of 2.5, 4, 7, or 10 (Fluka) at 37 °C for 24 h. After incubation, the sample was mixed with an equal volume of N,N-dimethylformamide and sonicated briefly. Next, 20 μL of the sample solution was mixed with 180 μL of aqueous buffer containing 100 mM NH4OAc and 25 μM methyl 4-nitro-1H-pyrrole-2-carboxylate as an internal standard. Analytical HPLC analysis was performed on a Beckman analytical HPLC.

[3] = test system: androgen receptor (AR) signaling; PSA mRNA in LNCaP prostate cancer cells; conditions: cited from earlier work
C57BL/6 mice = experiment: Toxicity (weight loss, signs of duress) after a single SC injection; conditions: for additional signs of duress / dose level with critical (>15 %) / dose-limiting weight loss: single SC injection, 7-day observation
Text: Four animals were used in each group unless otherwise noted.

| Compound | concentration at 24 h ([2]; liver, single IV) [ng/g] | AUC (AUC0–24h) kidney ([2]; kidney, single IV) [µg·h/g] | C max kidney ([2]; kidney, single IV) [µg/g] | AUC (AUC0–24h) liver ([2]; liver, single IV) [µg·h/g] | C max liver ([2]; liver, single IV) [µg/g] | concentration in the lung maintained over the entire time course ([2]; lung, single IV) | AUC (AUC0–24h) lung ([2]; lung, single IV) [µg·h/g] | C max lung ([2]; lung, single IV) [µg/g] | stability at pH 2.5, 4, 7, and 10 (pH stability analysis) | additional signs of duress (C57BL/6 mice) | dose level with critical (>15 %) / dose-limiting weight loss (C57BL/6 mice) | further results |
| --- | --- | --- | --- | --- | --- | --- | --- | --- | --- | --- | --- | --- |
| CN(CCCNC(=O)c1cccc(C(=O)O)c1)CCCNC(=O)c1cc(NC(=O)c2cc(NC(=O)c3cc(NC(=O)c4nc(NC(=O)[C@H](N)CCNC(=O)c5cc(NC(=O)c6cc(NC(=O)c7cc(NC(=O)c8nccn8C)cn7C)cn6C)cn5C)cn4C)cn3C)cn2C)cn1C [Polyamide 1] | 4800 ± 300 | 299.2 | 27.0 ± 2.9 | 157.7 | 11.7 ± 1.3 | above 2.8 ± 0.2 μg/g | 130.6 | 16.4 ± 1.4 | did not display significant signs of degradation at any pH | no additional sign of duress was observed | 10 mg/kg | cumulative urinary excretion ([1]; nearly complete by 4 h, single IV 7.5 mg/kg): 5.7 ± 2.9 % of the administered dose; Tmax ([2]; kidney, single IV, read-out: time of maximum concentration in kidney postinjection (converted)): 5 min; Tmax ([2]; liver, single IV, read-out: time of maximum concentration in liver postinjection (converted)): 5 min; Tmax ([2]; lung, single IV, read-out: time of peak concentration in lung following injection (converted)): 15 min; most active concentration for inhibition of DHT-induced genes ([3]; LNCaP cells co-treated with DHT): 7.4 µg/mL |
| CC(=O)N[C@@H](CNC(=O)c1cc(NC(=O)c2cc(NC(=O)c3cc(NC(=O)c4nccn4C)cn3C)cn2C)cn1C)CC(=O)Nc1cn(C)c(C(=O)Nc2cc(C(=O)Nc3cc(C(=O)Nc4cc(C(=O)NCCCN(C)CCCNC(=O)c5cccc(C(=O)O)c5)n(C)c4)n(C)c3)n(C)c2)n1 [Polyamide 2] | 17400 ± 8100 | 424.7 | 35.1 ± 2.8 | 301.3 | 43.8 ± 0.7 | > 21.8 ± 7.6 µg/g | 523.5 | 256 ± 93.1 | did not display significant signs of degradation at any pH | multiple signs of duress such as loss of ambulation and hunched posture in addition to weight loss; also recorded: additional signs of physical duress in addition to weight loss at all concentrations except 1.1 mg/kg | 4.5 mg/kg and 2.3 mg/kg | cumulative urinary excretion at 24 h ([1]; 24 h, single IV 5 mg/kg): 46.0 ± 15.2 % of the administered dose; time of maximum concentration in kidney postinjection ([2]; kidney, single IV): 5 min; time of maximum concentration in liver postinjection ([2]; liver, single IV): 5 min; lung C max of polyamide 2 relative to compound 1 ([2]; lung, initial distribution): greater than 15 fold; time of peak concentration in lung following injection ([2]; lung, single IV): 15 min; activity relative to polyamide 1 (AR-driven gene / PSA mRNA downregulation) ([3]; cell culture): tenfold increase; also recorded: equivalent activity to 1 at tenfold less concentration; relative toxicity in weight curve experiments (C57BL/6 mice; single SC injection of 1 and 2): more toxic |
